Source: publication PMC4255150 (Structure (London, England : 1993), 2014)

Target: T1, AmiA (Bacteroides uniformis, UniProt A0ABC9NAU1)
T1 sequence (A0ABC9NAU1 24-262): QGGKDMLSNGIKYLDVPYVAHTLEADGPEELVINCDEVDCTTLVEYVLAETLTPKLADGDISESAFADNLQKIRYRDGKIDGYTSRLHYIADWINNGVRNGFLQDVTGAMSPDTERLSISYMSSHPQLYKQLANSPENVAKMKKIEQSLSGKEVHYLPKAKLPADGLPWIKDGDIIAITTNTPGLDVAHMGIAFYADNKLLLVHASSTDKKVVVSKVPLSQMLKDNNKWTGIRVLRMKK
Assay: HPLC inhibition assay with TCT
Assay type: biochemical
Settings: 0.1 mM TCT substrate, pH 7.8, 37°C

## CC(=O)N[C@H]1C(O)O[C@H](CO)[C@@H](O)[C@@H]1O (stereo partly drawn) [GlcNAc]
  % activity retained at 1 mM: 98%

## CC(=O)N[C@H]1[C@H](O[C@H]2[C@H](O[C@H](C)C(=O)O)[C@@H](NC(C)=O)[C@@H]3OC[C@H]2O3)O[C@H](CO)[C@@H](O)[C@@H]1O [GlcNAc-anhMurNAc]
Reaction product
  % activity retained at 1 mM: 15%

## CC(=O)N[C@H]1C(O)O[C@H](CO)[C@@H](O)[C@@H]1O[C@H](C)C(=O)O (stereo partly drawn) [MurNAc]
  % activity retained at 1 mM: 25%
